Values quoted from earlier work as cited in patent US20050114109A1, “STRUCTURE OF INTEGRIN ALPHA V-beta 3 EXTRACELLULAR DOMAIN COMPLEXED WITH LIGAND” (priority 2002, published 2005).
pIC50: −log10 of the molar value.

Test system: native or extracellular αVβ3
Settings: physiologic ligands, from Mehta et al. 1998 and Dechantsreiter et al. 1999, read-out: IC50, competes with binding of physiologic ligands to αVβ3

native or extracellular αVβ3, sequence (P06756 31-889 limits assumed): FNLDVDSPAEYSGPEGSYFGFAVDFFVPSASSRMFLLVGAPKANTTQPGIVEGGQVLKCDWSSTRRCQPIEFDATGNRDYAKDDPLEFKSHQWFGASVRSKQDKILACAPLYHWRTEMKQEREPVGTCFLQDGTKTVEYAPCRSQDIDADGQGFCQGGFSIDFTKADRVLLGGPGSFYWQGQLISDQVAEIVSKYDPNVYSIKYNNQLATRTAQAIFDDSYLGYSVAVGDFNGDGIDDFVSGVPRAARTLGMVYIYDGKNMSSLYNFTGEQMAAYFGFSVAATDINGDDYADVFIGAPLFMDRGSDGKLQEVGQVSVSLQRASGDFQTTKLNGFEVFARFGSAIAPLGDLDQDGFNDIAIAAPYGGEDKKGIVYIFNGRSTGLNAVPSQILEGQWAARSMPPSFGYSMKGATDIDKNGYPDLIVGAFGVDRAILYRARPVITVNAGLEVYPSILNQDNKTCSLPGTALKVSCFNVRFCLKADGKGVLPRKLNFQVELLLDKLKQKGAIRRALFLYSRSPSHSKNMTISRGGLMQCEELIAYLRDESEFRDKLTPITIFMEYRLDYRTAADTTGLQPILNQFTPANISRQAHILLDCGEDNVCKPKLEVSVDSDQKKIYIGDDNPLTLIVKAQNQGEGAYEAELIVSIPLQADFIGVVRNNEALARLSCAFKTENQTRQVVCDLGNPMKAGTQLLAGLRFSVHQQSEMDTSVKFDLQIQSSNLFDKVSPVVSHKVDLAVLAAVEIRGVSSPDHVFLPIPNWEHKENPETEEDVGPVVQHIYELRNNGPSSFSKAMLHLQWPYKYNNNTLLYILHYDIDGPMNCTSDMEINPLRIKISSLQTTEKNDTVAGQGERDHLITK
native or extracellular αVβ3, sequence (P06756 891-987 limits assumed): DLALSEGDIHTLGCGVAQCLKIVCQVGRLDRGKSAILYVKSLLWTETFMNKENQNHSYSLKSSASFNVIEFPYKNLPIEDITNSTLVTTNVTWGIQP
native or extracellular αVβ3, sequence (P05106 27-625 limits assumed, further chain): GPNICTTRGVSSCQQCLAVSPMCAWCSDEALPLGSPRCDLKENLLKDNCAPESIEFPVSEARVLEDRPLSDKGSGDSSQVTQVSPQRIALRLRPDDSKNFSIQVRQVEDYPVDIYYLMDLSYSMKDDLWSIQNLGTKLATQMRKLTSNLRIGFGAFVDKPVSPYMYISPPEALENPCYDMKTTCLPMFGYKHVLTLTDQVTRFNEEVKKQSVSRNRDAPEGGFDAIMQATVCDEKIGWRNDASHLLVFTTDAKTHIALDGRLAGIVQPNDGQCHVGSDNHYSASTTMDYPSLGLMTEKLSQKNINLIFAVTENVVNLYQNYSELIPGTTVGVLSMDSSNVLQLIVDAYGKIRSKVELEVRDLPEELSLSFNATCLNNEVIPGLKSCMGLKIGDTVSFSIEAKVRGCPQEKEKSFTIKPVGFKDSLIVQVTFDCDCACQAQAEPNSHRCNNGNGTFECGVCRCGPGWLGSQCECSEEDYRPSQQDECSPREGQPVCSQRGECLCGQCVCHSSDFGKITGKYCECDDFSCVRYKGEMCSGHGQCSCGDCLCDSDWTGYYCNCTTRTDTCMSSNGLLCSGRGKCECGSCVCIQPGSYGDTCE

pIC50: 8.52 to 9.30
Substance: Arg-Gly-Asp-(D-Phe)-(N-methyl-Val) [Cyclo(RGDf-N-Me-V), cyclic pentapeptide ligand of αVβ3, in clinical trials as an anti-angiogenic therapeutic]
